Assay results from publication PMC7997411, “Discovery and Optimization of Selective Inhibitors of Meprin α (Part II)” (Pharmaceuticals, 2021).

Key:
Assay type in all cases: biochemical
meprin α [1] = target: T1, meprin α (Homo sapiens, UniProt Q16819); assay: Meprin α assay in a 384-well plate (fluorogenic substrate Mca-YVADAPK-K(Dnp)); conditions: pre-incubation with meprin α for 0–3 h
T1 construct: Strep-tag; made in house; host or cells: BTI-TN-5B1-4 insect cells (baculovirus, amplified in Sf9)
T1 sequence (Q16819 66-746): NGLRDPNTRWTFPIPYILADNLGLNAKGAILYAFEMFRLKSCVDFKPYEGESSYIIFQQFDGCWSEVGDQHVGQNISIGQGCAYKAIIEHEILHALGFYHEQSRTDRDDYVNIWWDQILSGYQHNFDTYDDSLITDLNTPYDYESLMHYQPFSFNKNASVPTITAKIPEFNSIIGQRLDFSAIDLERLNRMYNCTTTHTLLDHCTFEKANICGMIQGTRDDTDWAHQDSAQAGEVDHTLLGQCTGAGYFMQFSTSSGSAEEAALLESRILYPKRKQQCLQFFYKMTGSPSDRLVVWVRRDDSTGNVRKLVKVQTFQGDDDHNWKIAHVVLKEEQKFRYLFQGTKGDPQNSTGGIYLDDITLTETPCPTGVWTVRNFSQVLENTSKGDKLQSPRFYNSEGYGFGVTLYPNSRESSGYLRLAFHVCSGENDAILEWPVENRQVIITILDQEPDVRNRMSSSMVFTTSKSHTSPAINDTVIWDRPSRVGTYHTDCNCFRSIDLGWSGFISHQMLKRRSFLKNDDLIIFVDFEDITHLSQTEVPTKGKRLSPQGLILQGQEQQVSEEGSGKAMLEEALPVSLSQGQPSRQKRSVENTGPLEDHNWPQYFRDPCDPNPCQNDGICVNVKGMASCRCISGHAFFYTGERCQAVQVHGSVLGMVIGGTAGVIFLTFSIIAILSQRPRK

meprin α [2] = target: T1, meprin α; assay: Kinetic parameters of meprin α mediated proteolysis in the presence of SR24717
Procedure: Substrate stock solutions were prepared at various concentrations in HTS assay buffer (50 mM HEPES, 0.01% Brij-35, pH 7.5). Assays were conducted by incubating a range of substrate (2–50 µM) and SR24717 concentrations (0–1000 nM) with 1.3 nM meprin α at 25 °C. Fluorescence was measured on a multimode microplate reader Synergy H1 (Biotek Instruments, Winooski, VT, USA) using λexcitation = 324 nm and λemission = 393 nm. Rates of hydrolysis were obtained from plots of fluorescence versus time, using data points from only the linear portion of the hydrolysis curve. The slope from these plots was divided by the fluorescence change corresponding to complete hydrolysis and then multiplied by the substrate concentration to obtain rates of hydrolysis in units of μM/s. Kinetic parameters were calculated by non-linear regression analysis using the GraphPad Prism 8.0 suite of programs.

[3] = test system: MMP-2, MMP-3, MMP-8, MMP-9, MMP-10, MMP-14, ADAM10, and ADAM17; assay: Selectivity panel of related metzincins; conditions: all tested enzymes, Figure 4B
Procedure: Both assays followed the same general protocol. 2.5 µL of 2× enzyme solution (20 nM) in assay buffer (10 mM HEPES, 0.001% Brij-35, pH 7.5) were added to solid bottom black 384 plates (Greiner, cat# 789075). Next, test compounds and pharmacological controls were added to corresponding wells using a 384-pin tool device (V&P Scientific, San Diego). After 30 min incubation at RT, the reactions were started by addition of 2.5 µL of 2× solutions of substrate (R&D Systems cat#: ES010, Mca-KPLGL-Dpa-AR-NH2, 20 µM). Reactions were incubated at RT for 2 h, after which the fluorescence was measured using a Perkin Elmer Viewlux multimode microplate imager (λexcitation = 324 nm, λemission = 393 nm). All compounds were tested in 10-point, 1:3 serial dilutions dose-response format starting with highest concentration of 100 µM. IC50 values were determined using non-linear regression analysis using the GraphPad Prism 8.0 suite of programs.
All assays followed the same general protocol. […] Reactions were incubated at RT for 1 h, after which the fluorescence was measured using the Synergy H4 multimode microplate reader (Biotek Instruments) (λexcitation = 324 nm, λemission = 390 nm). […] IC50 values were determined using non-linear regression analysis using the GraphPad Prism 8.0 suite of programs.

## COc1cc(OC)nc(SCc2nnc(SCC(=O)NO)n2-c2ccc(N(C)C)cc2)n1 [SR24717]
Meprin α [1]
  time dependence of inhibition: change in IC50 values: no change in IC50 values
Meprin α [2]; global fit to the competitive model of inhibition
  Ki: 301 nM
Meprin α [2]; varying substrate concentration
  mode of inhibition of meprin α: competitive
[3]
  IC50: > 100000 nM
